Tested on: P12-Ichikawa
Experiment: cell viability relative to DMSO control; higher = less cytotoxic
Conditions: 48 h
Method in brief: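 Viability was expressed as a per-plate percentage of DMSO wells, with cell-free wells as background. Leukemia cells (NOMO1 or SEM at 500 cells/well, P12-Ichikawa at 1000 cells/well) were adapted for at least four passages in each medium and seeded in 1536-well plates (5 μl). Library compounds in DMSO were pin-dosed over an 11-point threefold series from 47 μM to 0.79 nM, and CellTiter-Glo One luminescence was read after 48 h at 37°C.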

[1] = HPLM + 10% dialyzed FBS, 0.000781 µM
[2] = HPLM + 10% dialyzed FBS, 0.00234 µM
[3] = HPLM + 10% dialyzed FBS, 0.00702 µM
[4] = HPLM + 10% dialyzed FBS, 0.0211 µM
[5] = HPLM + 10% dialyzed FBS, 0.0632 µM
[6] = HPLM + 10% dialyzed FBS, 0.19 µM
[7] = HPLM + 10% dialyzed FBS, 0.569 µM
[8] = HPLM + 10% dialyzed FBS, 1.71 µM
[9] = HPLM + 10% dialyzed FBS, 5.12 µM
[10] = HPLM + 10% dialyzed FBS, 15.4 µM
[11] = HPLM + 10% dialyzed FBS, 46.1 µM
[12] = RPMI 5 mM glucose + 10% FBS, 0.000781 µM
[13] = RPMI 5 mM glucose + 10% FBS, 0.00234 µM
[14] = RPMI 5 mM glucose + 10% FBS, 0.00702 µM
[15] = RPMI 5 mM glucose + 10% FBS, 0.0211 µM
[16] = RPMI 5 mM glucose + 10% FBS, 0.0632 µM
[17] = RPMI 5 mM glucose + 10% FBS, 0.19 µM
[18] = RPMI 5 mM glucose + 10% FBS, 0.569 µM
[19] = RPMI 5 mM glucose + 10% FBS, 1.71 µM
[20] = RPMI 5 mM glucose + 10% FBS, 5.12 µM
[21] = RPMI 5 mM glucose + 10% FBS, 15.4 µM
[22] = RPMI 5 mM glucose + 10% FBS, 46.1 µM
[23] = RPMI 5 mM glucose + 10% dialyzed FBS, 0.000781 µM
[24] = RPMI 5 mM glucose + 10% dialyzed FBS, 0.00234 µM
[25] = RPMI 5 mM glucose + 10% dialyzed FBS, 0.00702 µM
[26] = RPMI 5 mM glucose + 10% dialyzed FBS, 0.0211 µM
[27] = RPMI 5 mM glucose + 10% dialyzed FBS, 0.0632 µM
[28] = RPMI 5 mM glucose + 10% dialyzed FBS, 0.19 µM
[29] = RPMI 5 mM glucose + 10% dialyzed FBS, 0.569 µM
[30] = RPMI 5 mM glucose + 10% dialyzed FBS, 1.71 µM
[31] = RPMI 5 mM glucose + 10% dialyzed FBS, 5.12 µM
[32] = RPMI 5 mM glucose + 10% dialyzed FBS, 15.4 µM
[33] = RPMI 5 mM glucose + 10% dialyzed FBS, 46.1 µM

SMILES | cell viability [1] [%] | cell viability [2] [%] | cell viability [3] [%] | cell viability [4] [%] | cell viability [5] [%] | cell viability [6] [%] | cell viability [7] [%] | cell viability [8] [%] | cell viability [9] [%] | cell viability [10] [%] | cell viability [11] [%] | cell viability [12] [%] | cell viability [13] [%] | cell viability [14] [%] | cell viability [15] [%] | cell viability [16] [%] | cell viability [17] [%] | cell viability [18] [%] | cell viability [19] [%] | cell viability [20] [%] | cell viability [21] [%] | cell viability [22] [%] | cell viability [23] [%] | cell viability [24] [%] | cell viability [25] [%] | cell viability [26] [%] | cell viability [27] [%] | cell viability [28] [%] | cell viability [29] [%] | cell viability [30] [%] | cell viability [31] [%] | cell viability [32] [%] | cell viability [33] [%]
CC1=CC2=C(O1)C(=C3OC(=O)\C=C(C)/C3=C2)C | 105 | 116 | 113 | 109 | 113 | 111 | 117 | 111 | 108 | 102 | 99.6 | 89.6 | 107 | 105 | 106 | 103 | 107 | 118 | 106 | 107 | 102 | 96.8 | 102 | 112 | 110 | 111 | 113 | 115 | 110 | 115 | 104 | 105 | 86.8
OC1=C(C=CC=C1)C2=CC=C(C=C2)C3=CSC4=C3C(=C(/C#N)C(=O)N4)/O | 124 | 127 | 124 | 124 | 119 | 119 | 112 | 116 | 114 | 111 | 110 | – | – | – | – | – | – | – | – | – | – | – | – | – | – | – | – | – | – | – | – | – | –
COc1cc2c(NC3CCN(C(C)C)CC3)nc(C3CCCCC3)nc2cc1OCCCN1CCCC1 | 107 | 110 | 115 | 121 | 121 | 121 | 120 | 123 | 119 | 105 | 4.7 | 112 | 127 | 113 | 127 | 121 | 116 | 120 | 131 | 112 | 96.9 | 3.81 | 106 | 117 | 114 | 121 | 123 | 129 | 122 | 133 | 110 | 91.5 | 4.78
Cn1cc(-c2ccncc2)c(-c2ccc(OCc3ccc4ccccc4n3)cc2)n1 | 120 | 121 | 122 | 121 | 126 | 123 | 115 | 118 | 109 | 91.5 | 75.5 | 121 | 127 | 120 | 132 | 122 | 121 | 120 | 120 | 104 | 65.8 | 53.7 | – | – | – | – | – | – | – | – | – | – | –
COc1cc(/C=C/C(=O)CC(=O)/C=C/c2ccc(O)c(OC)c2)ccc1O | 99.1 | 96.9 | 108 | 104 | 110 | 105 | 109 | 106 | 96.4 | 27.8 | 5.27 | 102 | 104 | 98.4 | 113 | 113 | 110 | 105 | 104 | 99.1 | 61.2 | 4.23 | 98.8 | 102 | 105 | 110 | 104 | 98.2 | 104 | 113 | 102 | 60.3 | 4.18
CCC(CC)[C@H](NC(C)=O)[C@@H]1[C@H](O)[C@@H](C(=O)O)C[C@H]1NC(=N)N | 84.6 | 86.3 | 86.2 | 95.4 | 102 | 84.1 | 95.6 | 89 | 100 | 91.4 | 101 | 85.2 | 79.7 | 81.5 | 86 | 84.2 | 75.9 | 84.8 | 85.1 | 87.4 | 78.1 | 86.9 | 75.7 | 82.1 | 81.7 | 86.4 | 83 | 80.5 | 77.4 | 81.8 | 76.5 | 82.6 | 86.8
Cc1nc2c([nH]1)-c1ccccc1N(C(=O)c1ccc(NC(=O)c3ccccc3-c3ccccc3)cc1)CC2 | 114 | 120 | 122 | 117 | 127 | 126 | 124 | 128 | 121 | 128 | 128 | – | – | – | – | – | – | – | – | – | – | – | – | – | – | – | – | – | – | – | – | – | –
CC1(C)CC(=O)c2c(C(F)(F)F)nn(-c3ccc(C(N)=O)c(NC4CCC(OC(=O)CN)CC4)c3)c2C1 (stereo unspecified) | 107 | 86.9 | 96.8 | 96.5 | 102 | 88.6 | 62.2 | 42.1 | 36.4 | 36.3 | 37.9 | 83.8 | 93.7 | 91.7 | 95.4 | 99.1 | 66.3 | 35.2 | 33.2 | 29.2 | 28.8 | 27.3 | 92.9 | 92.9 | 93 | 91.9 | 89.6 | 82.4 | 41 | 32.3 | 33.3 | 28.8 | 28.5
CN(C)[C@H]\1[C@@H]2[C@@H](O)[C@@H]\3C(=C)C4=C(C(=CC=C4)O)C(=O)C3=C(\O)[C@@]2(O)C(=O)\C(=C1O)C(N)=O | – | – | – | – | – | – | – | – | – | – | – | 115 | 120 | 124 | 126 | 115 | 128 | 120 | 125 | 122 | 111 | 99.1 | 126 | 122 | 119 | 123 | 129 | 128 | 118 | 117 | 125 | 119 | 107

Source: the supplement of paper PMC11451515
